Assay results reported in patent US20240025922A1, “TETRAHYDROPYRIDO[3,4-d]PYRIMIDINES AS HPK1 INHIBITORS” (Merck Patent GmbH, priority 2022, published 2024).

Experiments:
[1] = biological target: full-length human HPK1 (MAP4K1) (Homo sapiens (Human), UniProt Q92918); assay: HPK1 Kinase Assay (Biochemical Assay), ADP-Glo; details: GST-HPK1 3.2 nM, 10 μM ATP, MBP substrate, read-out: HPK1 enzymatic IC50
Procedure, shortened: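 ADP-Glo luminescence after a 120-min kinase reaction gave percent inhibition and IC50. The enzyme was Sf21-expressed N-terminal GST full-length human HPK1 at 3.2 nM in HEPES pH 7.5 buffer with MgCl2, DTT, Brij-35 and BSA.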

[2] = biological target: HPK1 (SLP76 phosphorylation at Ser376 in Jurkat and EL-4 cells) (Homo sapiens, UniProt Q92918); type: cell-based; details: αCD3/αCD28 Dynabeads stimulated cells, pSLP76 (Ser376) detection; read-out: HPK1 pSLP76 IC50
Procedure, shortened: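 Phospho-SLP76 (Ser376) in lysates measured by AlphaLISA for human Jurkat and by 19 h HTRF for mouse EL-4, giving % inhibition and IC50. Compounds applied 60 min before αCD3/αCD28 bead stimulation at 37 °C, lasting 15 min (Jurkat) or 30 min (EL-4).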

Chain of full-length human HPK1 (MAP4K1) (Q92918 whole entry): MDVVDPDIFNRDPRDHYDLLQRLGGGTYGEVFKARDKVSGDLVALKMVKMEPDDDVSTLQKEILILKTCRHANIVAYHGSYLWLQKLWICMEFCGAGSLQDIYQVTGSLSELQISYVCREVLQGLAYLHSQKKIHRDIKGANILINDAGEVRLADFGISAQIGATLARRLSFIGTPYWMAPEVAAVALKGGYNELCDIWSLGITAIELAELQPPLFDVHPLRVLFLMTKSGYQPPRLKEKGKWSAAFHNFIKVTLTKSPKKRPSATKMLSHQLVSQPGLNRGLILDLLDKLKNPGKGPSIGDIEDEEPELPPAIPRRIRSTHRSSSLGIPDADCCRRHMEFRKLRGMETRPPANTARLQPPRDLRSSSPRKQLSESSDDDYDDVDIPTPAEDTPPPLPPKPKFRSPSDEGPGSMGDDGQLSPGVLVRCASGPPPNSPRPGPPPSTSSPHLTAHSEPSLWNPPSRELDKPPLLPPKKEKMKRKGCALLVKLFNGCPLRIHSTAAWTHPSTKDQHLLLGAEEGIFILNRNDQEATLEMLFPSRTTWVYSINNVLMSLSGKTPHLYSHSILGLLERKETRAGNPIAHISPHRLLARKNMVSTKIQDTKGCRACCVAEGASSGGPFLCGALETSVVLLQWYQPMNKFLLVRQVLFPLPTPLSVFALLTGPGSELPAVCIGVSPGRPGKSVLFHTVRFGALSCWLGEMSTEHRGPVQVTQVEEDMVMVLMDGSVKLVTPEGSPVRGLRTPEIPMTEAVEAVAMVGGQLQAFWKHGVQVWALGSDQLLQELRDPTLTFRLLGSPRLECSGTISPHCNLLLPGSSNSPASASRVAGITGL
Chain of HPK1 (SLP76 phosphorylation at Ser376 in Jurkat and EL-4 cells) (Q92918 whole entry, looked up): as the sequence (Q92918 whole entry) above

Structure (SMILES) | IC50 [1] [nM] | IC50 [2] [nM]
Cc1c(N2CCc3cnc(Nc4cnc5c(c4)CN(C)CC5)nc3C2)cnc2c1NCCO2 [Example 115, 7-(8-methyl-2,3-dihydro-1H-pyrido[2,3-b][1,4]oxazin-7-yl)-N-(6-methyl-5,6,7,8-tetrahydro-1,6-naphthyridin-3-yl)-5,6,7,8-tetrahydropyrido[3,4-d]pyrimidin-2-amine] | < 100 | 500 to 1000
Cc1c(N)cncc1N1CCc2cnc(Nc3cnc4c(c3)CN(C)CC4)nc2C1 [Example 116, 7-(5-amino-4-methylpyridin-3-yl)-N-(6-methyl-5,6,7,8-tetrahydro-1,6-naphthyridin-3-yl)-5,6,7,8-tetrahydropyrido[3,4-d]pyrimidin-2-amine] | < 100 | > 1000
Cc1ccncc1N1CCc2cnc(Nc3cnc4c(c3)CN(C)CC4)nc2C1 [Example 118, N-(6-methyl-5,6,7,8-tetrahydro-1,6-naphthyridin-3-yl)-7-(4-methylpyridin-3-yl)-5,6,7,8-tetrahydropyrido[3,4-d]pyrimidin-2-amine] | < 100 | > 1000
Cc1cnsc1N1CCc2cnc(Nc3cnc4c(c3)CN(C)CC4)nc2C1 [Example 119, N-(6-methyl-5,6,7,8-tetrahydro-1,6-naphthyridin-3-yl)-7-(4-methylisothiazol-5-yl)-5,6,7,8-tetrahydropyrido[3,4-d]pyrimidin-2-amine] | < 100 | > 1000
Cc1cc(Nc2ncc3c(n2)CN(c2cnc4c(c2Cl)NCCO4)CC3)ccc1NC(=O)CN1CCC1 [Example 121, 2-(azetidin-1-yl)-N-(4-((7-(8-chloro-2,3-dihydro-1H-pyrido[2,3-b][1,4]oxazin-7-yl)-5,6,7,8-tetrahydropyrido[3,4-d]pyrimidin-2-yl)amino)-2-methylphenyl)acetamide] | < 100 | < 500
Cc1cc(Nc2cc3c(cn2)CCN(c2cnc4c(c2Cl)NCCO4)C3)ccc1NC(=O)CN1CCOCC1 [Example 122, N-(4-((6-(8-chloro-2,3-dihydro-1H-pyrido[2,3-b][1,4]oxazin-7-yl)-5,6,7,8-tetrahydro-2,6-naphthyridin-3-yl)amino)-2-methylphenyl)-2-morpholinoacetamide] | < 100 | 500 to 1000
Cc1c(N2CCc3cnc(Nc4ccc(NCCN(C)C)c(F)c4)cc3C2)cnc2c1NCCO2 [Example 124, N1-(2-(dimethylamino)ethyl)-2-fluoro-N4-(6-(8-methyl-2,3-dihydro-1H-pyrido[2,3-b][1,4]oxazin-7-yl)-5,6,7,8-tetrahydro-2,6-naphthyridin-3-yl)benzene-1,4-diamine] | < 100 | 500 to 1000
CNC(=O)c1ccc(Nc2ncc3c(n2)CN(c2cnc4c(c2Cl)NCCO4)CC3)cc1C [Example 130, 4-[(7-{8-chloro-1H,2H,3H-pyrido[2,3-b][1,4]oxazin-7-yl}-5H,6H,7H,8H-pyrido[3,4-d]pyrimidin-2-yl)amino]-N,2-dimethylbenzamide] | < 100 | 500 to 1000
Cc1c(N2CCc3cnc(Nc4cc5n(n4)CC(=O)N(CC(F)F)CC5)cc3C2)cnc2c1NCCO2 [Example 140, 6-(2,2-difluoroethyl)-2-[(6-{8-methyl-1H,2H,3H-pyrido[2,3-b][1,4]oxazin-7-yl}-5,6,7,8-tetrahydro-2,6-naphthyridin-3-yl)amino]-4H,5H,6H,7H,8H-pyrazolo[1,5-d][1,4]diazepin-7-one] | < 100 | < 500
Cc1c(N2CCc3cnc(Nc4ccc(Cn5cncn5)cc4)cc3C2)cnc2c1NCCO2 [Example 144, 6-{8-methyl-1H,2H,3H-pyrido[2,3-b][1,4]oxazin-7-yl}-N-{4-[(1H-1,2,4-triazol-1-yl)methyl]phenyl}-5,6,7,8-tetrahydro-2,6-naphthyridin-3-amine] | < 100 | < 500
COCCOCCS(=O)(=O)c1ccc(Nc2ncc3c(n2)CN(c2cnc4c(c2C)NCCO4)CC3)cc1 [Example 147, N-{4-[2-(2-methoxyethoxy)ethanesulfonyl]phenyl}-7-{8-methyl-1H,2H,3H-pyrido[2,3-b][1,4]oxazin-7-yl}-5H,6H,7H,8H-pyrido[3,4-d]pyrimidin-2-amine] | < 100 | < 500

Continued, values first:

IC50 [1] [nM] | IC50 [2] [nM] | Structure (SMILES)
< 100 | 500 to 1000 | COC1CCN(c2ccc(Nc3ncc4c(n3)CN(c3cnc5c(c3C)NCCO5)CC4)cc2)CC1 [Example 113, N-(4-(4-methoxypiperidin-1-yl)phenyl)-7-(8-methyl-2,3-dihydro-1H-pyrido[2,3-b][1,4]oxazin-7-yl)-5,6,7,8-tetrahydropyrido[3,4-d]pyrimidin-2-amine]
< 100 | > 1000 | Cc1c(N2CCc3cnc(Nc4ccc(CN5CCCC5)cc4)nc3C2)cnc2c1NCCO2 [Example 125, 7-{8-methyl-1H,2H,3H-pyrido[2,3-b][1,4]oxazin-7-yl}-N-{4-[(pyrrolidin-1-yl)methyl]phenyl}-5H,6H,7H,8H-pyrido[3,4-d]pyrimidin-2-amine]
< 100 | < 500 | Cc1c(N2CCc3cnc(Nc4ccc(Cn5cncn5)cc4)nc3C2)cnc2c1NCCO2 [Example 126, 7-{8-methyl-1H,2H,3H-pyrido[2,3-b][1,4]oxazin-7-yl}-N-{4-[(1H-1,2,4-triazol-1-yl)methyl]phenyl}-5H,6H,7H,8H-pyrido[3,4-d]pyrimidin-2-amine]
< 100 | < 500 | Cc1c(N2CCc3cnc(Nc4ccc(Cn5ccnc5)cc4)nc3C2)cnc2c1NCCO2 [Example 127, N-{4-[(1H-imidazol-1-yl)methyl]phenyl}-7-{8-methyl-1H,2H,3H-pyrido[2,3-b][1,4]oxazin-7-yl}-5H,6H,7H,8H-pyrido[3,4-d]pyrimidin-2-amine]
< 100 | < 500 | Cc1c(N2CCc3cnc(Nc4ccc(CS(N)(=O)=O)cc4)nc3C2)cnc2c1NCCO2 [Example 128, {4-[(7-{8-methyl-1H,2H,3H-pyrido[2,3-b][1,4]oxazin-7-yl}-5H,6H,7H,8H-pyrido[3,4-d]pyrimidin-2-yl)amino]phenyl}methanesulfonamide]
< 100 | < 500 | CS(=O)(=O)Cc1ccc(Nc2ncc3c(n2)CN(c2cnc4c(c2C2CC2)NCCO4)CC3)cc1 [Example 132, 7-{8-cyclopropyl-1H,2H,3H-pyrido[2,3-b][1,4]oxazin-7-yl}-N-[4-(methanesulfonylmethyl)phenyl]-5H,6H,7H,8H-pyrido[3,4-d]pyrimidin-2-amine]
< 100 | < 500 | Cc1c(N2CCc3cnc(Nc4ccc(CO)cc4)nc3C2)cnc2c1NCCO2 [Example 133, {4-[(7-{8-methyl-1H,2H,3H-pyrido[2,3-b][1,4]oxazin-7-yl}-5H,6H,7H,8H-pyrido[3,4-d]pyrimidin-2-yl)amino]phenyl}methanol]
< 100 | < 500 | COCCS(=O)(=O)Cc1ccc(Nc2ncc3c(n2)CN(c2cnc4c(c2C)NCCO4)CC3)cc1 [Example 135, N-{4-[(2-methoxyethanesulfonyl)methyl]phenyl}-7-{8-methyl-1H,2H,3H-pyrido[2,3-b][1,4]oxazin-7-yl}-5H,6H,7H,8H-pyrido[3,4-d]pyrimidin-2-amine]
< 100 | < 500 | Cc1c(N2CCc3cnc(Nc4ccc(CS(C)(=O)=O)cc4)nc3C2)cnc2c(F)c[nH]c12 [Example 138, 7-{3-fluoro-7-methyl-1H-pyrrolo[3,2-b]pyridin-6-yl}-N-[4-(methanesulfonylmethyl)phenyl]-5H,6H,7H,8H-pyrido[3,4-d]pyrimidin-2-amine]
< 100 | < 500 | Cc1c(N2CCc3cnc(Nc4ccc(CS(C)(=O)=O)cc4)nc3C2)cnc2c1NCC1(CC1)O2 [Example 139, N-[4-(methanesulfonylmethyl)phenyl]-7-{8′-methyl-1′,2′-dihydrospiro[cyclopropane-1,3′-pyrido[2,3-b][1,4]oxazin]-7′-yl}-5H,6H,7H,8H-pyrido[3,4-d]pyrimidin-2-amine]
< 100 | > 1000 | Cc1c(N2CCc3cnc(Nc4ccc(CS(C)(=O)=O)cc4)nc3C2)cnc2c1NCCC2=O [Example 142, 7-(2-{[4-(methanesulfonylmethyl)phenyl]amino}-5H,6H,7H,8H-pyrido[3,4-d]pyrimidin-7-yl)-8-methyl-1,2,3,4-tetrahydro-1,5-naphthyridin-4-one]
< 100 | < 500 | Cc1c(N2CCc3cnc(Nc4ccc(CS(C)(=O)=O)cc4)nc3C2)cnc2c1NCCC2O (centres unmarked) [Example 143, 7-(2-{[4-(methanesulfonylmethyl)phenyl]amino}-5H,6H,7H,8H-pyrido[3,4-d]pyrimidin-7-yl)-8-methyl-1,2,3,4-tetrahydro-1,5-naphthyridin-4-ol]
< 100 | < 500 | CCc1c(N2CCc3cnc(Nc4ccc(CS(C)(=O)=O)cc4)nc3C2)cnc2c1NCCO2 [Example 145, 7-{8-ethyl-1H,2H,3H-pyrido[2,3-b][1,4]oxazin-7-yl}-N-[4-(methanesulfonylmethyl)phenyl]-5H,6H,7H,8H-pyrido[3,4-d]pyrimidin-2-amine]
< 100 | < 500 | Cc1c(N2CCc3cnc(Nc4ccc(CC#N)cc4)nc3C2)cnc2c1NCCO2 [Example 148, 2-{4-[(7-{8-methyl-1H,2H,3H-pyrido[2,3-b][1,4]oxazin-7-yl}-5H,6H,7H,8H-pyrido[3,4-d]pyrimidin-2-yl)amino]phenyl}acetonitrile; formic acid]
